Our source for the inhibition, IC50 and melting point values is PMC9268448, “Synthesis of 4,5-Dihydro-1H-[1,2]dithiolo[3,4-c]quinoline-1-thione Derivatives and Their Application as Protein Kinase Inhibitors” (Molecules, 2022).

By inhibition is commonly meant the change of the read-out against control, counted positive when it falls. Higher therefore signals strong suppression. As a reminder, the IC50 is the concentration needed to halve the response being measured. A lower IC50 goes with greater potency in that assay. Broadly, the melting point is the temperature, or range, at which the solid turns liquid.

One series has as its target JAK2 (Homo sapiens, UniProt O60674). The series can be described thus: Kinase inhibition ELISA, JAK2. In kind it is biochemical. Particulars: 10 μM test compound, 150 μM ATP. On the procedure:
(§1) Study of inhibitory activity. The kinase activity was determined by enzyme-linked immunosorbent assay (ELISA) in polypropylene plates (Costar, 3363) in reaction buffer (20 mM HEPES, pH 7.5, 15 mM MgCl2, 2 mM DTT, 0.2 mM Na3VO4, 0.005% Triton X-100) for 60 min at 30 °C with vigorous stirring. The final concentration of the reaction components: 0.05 μg mL^–1 of the corresponding kinase, 5 nM Histon H3 biotinylated substrate (1–21) (Anaspec, 61702), 150 μM ATP (Sigma, A6419), 10 μM test compound, 5% DMSO. The enzymatic reaction was stopped with a buffer containing 20 mM HEPES (Sigma, H4034), pH 7.5, and 150 mM EDTA (Sigma, E5513). Further, to detect the phosphorylated substrate, the reaction mixture was transferred to pre-prepared plates (Nunc, 468667) coated with neutravidin (1 ng per well; Pierce, 31000) and treated with bovine serum albumin (BSA) to block non-specific binding sites. Incubation was carried out for 1 h at room temperature. After washing the plates three times with phosphate buffer saline (PBS, pH 7.4) with Tween-20, they were incubated sequentially with anti-phospho-Histon H3 antibodies (0.3 ng μL^–1; Millipore, 04-746) and with specific antibodies conjugated with an enzyme-label (peroxidase) Anti-rabbit IgG, HRP-linked Antibody (titer 1/5000; Cell Signaling, 7074). After completion of each incubation step (60 min at room temperature (~20 °C) and continuous stirring), the plates were washed three times from unbound antibody molecules with a PBS solution with Tween-20 and 100 μL of substrate (3.3′,5.5′-tetramethylbenzidine (TMB) dihydrochloride, Sigma, T8768) prepared according to the manufacturer’s instructions. Before measuring the optical density, the reaction was stopped using 0.5 M Н2SO4. The optical density of the solution was determined at λ = 450 nm using a tablet spectrophotometer (TECAN Safire). The data obtained were processed and imported into the HTSCalc program.

A further series has as its target ALK (Homo sapiens, UniProt Q9UM73). Put plainly: Kinase inhibition ELISA, ALK. In kind it is biochemical. Particulars: 10 μM test compound, 150 μM ATP. Here is the method: as §1
A general note: ELISA stands for enzyme-linked immunosorbent assay.

Another series deals with EGFR[L858R][T790] (Homo sapiens, UniProt P00533, L858R/T790M). The series can be described thus: Kinase inhibition ELISA, EGFR[L858R][T790]. In kind it is biochemical. Particulars: 10 μM test compound, 150 μM ATP. Here is the method: as §1
In the next series the target is cRAF[Y340D][Y341D] (Homo sapiens, UniProt P04049, Y340D/Y341D). The series can be described thus: Kinase inhibition ELISA, cRAF[Y340D][Y341D]. In kind it is biochemical. Particulars: for inhibition at 10 µM: 10 μM test compound, 150 μM ATP; for IC50: ten concentration points. Here is the method:
(§2) Study of inhibitory activity. […] The enzymatic reaction was stopped with a buffer containing 20 mM HEPES (Sigma, H4034), pH 7.5, and 150 mM EDTA (Sigma, E5513). […] Incubation was carried out for 1 h at room temperature. […] After completion of each incubation step (60 min at room temperature (~20 °C) and continuous stirring), the plates were washed three times from unbound antibody molecules with a PBS solution with Tween-20 and 100 μL of substrate (3.3′,5.5′-tetramethylbenzidine (TMB) dihydrochloride, Sigma, T8768) prepared according to the manufacturer’s instructions. Before measuring the optical density, the reaction was stopped using 0.5 M Н2SO4. The optical density of the solution was determined at λ = 450 nm using a tablet spectrophotometer (TECAN Safire). The data obtained were processed and imported into the HTSCalc program.
(§3) The data were analyzed using GraphPad Prism software (v. 3.1).

The target in another series is T1, JAK3 (Homo sapiens, UniProt P52333).
T1 sequence (P52333 1-1124): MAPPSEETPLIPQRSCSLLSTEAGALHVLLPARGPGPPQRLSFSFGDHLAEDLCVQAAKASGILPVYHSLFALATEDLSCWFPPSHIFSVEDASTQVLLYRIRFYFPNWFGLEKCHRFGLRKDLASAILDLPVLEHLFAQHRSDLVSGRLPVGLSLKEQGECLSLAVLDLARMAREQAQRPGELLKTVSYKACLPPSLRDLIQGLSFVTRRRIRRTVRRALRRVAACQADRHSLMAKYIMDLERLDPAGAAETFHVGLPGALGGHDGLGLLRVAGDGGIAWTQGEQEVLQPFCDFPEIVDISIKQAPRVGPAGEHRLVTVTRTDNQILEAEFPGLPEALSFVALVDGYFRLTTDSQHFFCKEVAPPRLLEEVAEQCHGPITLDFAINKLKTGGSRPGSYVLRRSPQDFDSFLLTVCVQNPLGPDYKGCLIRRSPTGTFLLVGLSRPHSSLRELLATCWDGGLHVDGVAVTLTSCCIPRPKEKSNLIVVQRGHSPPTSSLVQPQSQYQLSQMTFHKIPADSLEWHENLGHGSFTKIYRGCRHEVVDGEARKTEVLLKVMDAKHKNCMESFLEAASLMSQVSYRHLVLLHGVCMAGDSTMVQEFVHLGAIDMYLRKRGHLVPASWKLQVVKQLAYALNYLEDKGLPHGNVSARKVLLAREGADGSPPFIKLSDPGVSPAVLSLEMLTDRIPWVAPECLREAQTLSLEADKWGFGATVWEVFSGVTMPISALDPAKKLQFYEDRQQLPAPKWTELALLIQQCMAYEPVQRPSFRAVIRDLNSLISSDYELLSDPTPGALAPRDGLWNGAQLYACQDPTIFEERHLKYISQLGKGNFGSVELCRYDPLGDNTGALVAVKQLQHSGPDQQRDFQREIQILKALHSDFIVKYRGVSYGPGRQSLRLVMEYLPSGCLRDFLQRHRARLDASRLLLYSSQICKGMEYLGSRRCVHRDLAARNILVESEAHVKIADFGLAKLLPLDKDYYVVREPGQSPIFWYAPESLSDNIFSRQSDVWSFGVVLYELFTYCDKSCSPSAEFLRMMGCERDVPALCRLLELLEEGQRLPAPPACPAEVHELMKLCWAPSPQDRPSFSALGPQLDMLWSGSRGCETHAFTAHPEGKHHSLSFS
Put plainly: Kinase inhibition ELISA, JAK3. In kind it is biochemical. Particulars: for inhibition at 10 µM: 10 μM test compound, 150 μM ATP; for IC50: ten concentration points. Here is the method: as §1
For compounds 2a–c,q, the IC50 value (μmol L^–1) was calculated from ten concentration points (in triplicate dilution) obtained twice. The data were analyzed using GraphPad Prism software (v. 3.1).

Another series deals with T2, NPM1-ALK (Homo sapiens, UniProt Q9UM73).
T2 construct: NPM1 (nucleophosmin, P06748) fusion partner
Put plainly: Kinase inhibition ELISA, NPM1-ALK. In kind it is biochemical. Particulars: for inhibition at 10 µM: 10 μM test compound, 150 μM ATP; for IC50: ten concentration points. On the procedure: as §2, §3

Sequence of ALK (Q9UM73 19-1620): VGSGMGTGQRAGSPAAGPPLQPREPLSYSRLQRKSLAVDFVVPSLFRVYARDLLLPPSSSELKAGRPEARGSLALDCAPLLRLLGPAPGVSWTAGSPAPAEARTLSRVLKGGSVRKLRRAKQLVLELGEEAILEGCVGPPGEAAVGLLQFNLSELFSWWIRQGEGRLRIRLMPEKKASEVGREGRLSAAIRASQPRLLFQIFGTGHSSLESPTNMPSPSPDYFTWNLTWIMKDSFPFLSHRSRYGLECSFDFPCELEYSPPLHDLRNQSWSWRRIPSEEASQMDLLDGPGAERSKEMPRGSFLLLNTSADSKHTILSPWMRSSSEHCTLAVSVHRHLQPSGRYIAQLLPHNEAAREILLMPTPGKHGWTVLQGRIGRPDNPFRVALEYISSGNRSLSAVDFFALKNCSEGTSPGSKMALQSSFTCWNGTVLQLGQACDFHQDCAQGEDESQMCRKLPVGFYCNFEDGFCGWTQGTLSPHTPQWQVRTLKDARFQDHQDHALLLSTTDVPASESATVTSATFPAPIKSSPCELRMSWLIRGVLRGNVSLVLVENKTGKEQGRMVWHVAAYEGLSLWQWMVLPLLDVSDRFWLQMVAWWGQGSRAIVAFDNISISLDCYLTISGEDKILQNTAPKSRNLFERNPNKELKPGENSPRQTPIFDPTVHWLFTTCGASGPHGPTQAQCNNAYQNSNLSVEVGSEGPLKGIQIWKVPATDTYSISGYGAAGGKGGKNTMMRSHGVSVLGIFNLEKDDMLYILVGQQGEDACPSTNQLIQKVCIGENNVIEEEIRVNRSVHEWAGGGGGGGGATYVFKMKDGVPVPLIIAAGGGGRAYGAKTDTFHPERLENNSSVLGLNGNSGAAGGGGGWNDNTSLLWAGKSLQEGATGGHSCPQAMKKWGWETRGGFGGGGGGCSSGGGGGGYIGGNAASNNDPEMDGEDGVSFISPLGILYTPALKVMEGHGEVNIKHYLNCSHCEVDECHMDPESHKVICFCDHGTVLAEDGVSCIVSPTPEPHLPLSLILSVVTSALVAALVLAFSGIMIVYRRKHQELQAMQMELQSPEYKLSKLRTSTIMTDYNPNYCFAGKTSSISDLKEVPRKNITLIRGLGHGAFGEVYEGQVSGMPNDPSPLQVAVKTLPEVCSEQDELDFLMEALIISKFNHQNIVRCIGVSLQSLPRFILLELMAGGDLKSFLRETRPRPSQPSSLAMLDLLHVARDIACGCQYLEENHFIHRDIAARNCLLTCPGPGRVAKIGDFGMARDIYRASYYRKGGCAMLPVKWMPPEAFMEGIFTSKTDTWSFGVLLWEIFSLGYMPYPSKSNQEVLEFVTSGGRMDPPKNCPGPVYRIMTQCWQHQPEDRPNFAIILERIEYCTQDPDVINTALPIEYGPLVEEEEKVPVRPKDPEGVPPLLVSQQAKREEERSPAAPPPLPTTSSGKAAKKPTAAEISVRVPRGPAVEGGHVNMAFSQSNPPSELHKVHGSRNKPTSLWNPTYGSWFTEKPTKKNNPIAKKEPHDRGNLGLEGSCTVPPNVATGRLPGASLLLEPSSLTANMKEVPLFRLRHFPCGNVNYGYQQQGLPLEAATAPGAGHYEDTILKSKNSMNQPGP
Sequence of EGFR[L858R][T790] (P00533 669-1210 T790M/L858R limits assumed): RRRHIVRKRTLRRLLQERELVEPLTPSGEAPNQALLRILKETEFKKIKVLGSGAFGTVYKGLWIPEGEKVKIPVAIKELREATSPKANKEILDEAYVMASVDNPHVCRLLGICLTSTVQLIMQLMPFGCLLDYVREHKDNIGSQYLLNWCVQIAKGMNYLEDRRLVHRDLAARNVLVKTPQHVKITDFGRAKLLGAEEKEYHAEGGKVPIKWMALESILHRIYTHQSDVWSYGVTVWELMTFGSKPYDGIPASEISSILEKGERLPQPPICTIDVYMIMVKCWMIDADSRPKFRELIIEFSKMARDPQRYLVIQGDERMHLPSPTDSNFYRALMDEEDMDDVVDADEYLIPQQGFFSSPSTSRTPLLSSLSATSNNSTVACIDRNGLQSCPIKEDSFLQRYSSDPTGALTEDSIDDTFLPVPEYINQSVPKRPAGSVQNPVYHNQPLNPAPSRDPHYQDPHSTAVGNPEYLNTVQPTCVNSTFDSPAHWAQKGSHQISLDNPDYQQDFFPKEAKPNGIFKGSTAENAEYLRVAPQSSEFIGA
Sequence of JAK2 (O60674 whole entry): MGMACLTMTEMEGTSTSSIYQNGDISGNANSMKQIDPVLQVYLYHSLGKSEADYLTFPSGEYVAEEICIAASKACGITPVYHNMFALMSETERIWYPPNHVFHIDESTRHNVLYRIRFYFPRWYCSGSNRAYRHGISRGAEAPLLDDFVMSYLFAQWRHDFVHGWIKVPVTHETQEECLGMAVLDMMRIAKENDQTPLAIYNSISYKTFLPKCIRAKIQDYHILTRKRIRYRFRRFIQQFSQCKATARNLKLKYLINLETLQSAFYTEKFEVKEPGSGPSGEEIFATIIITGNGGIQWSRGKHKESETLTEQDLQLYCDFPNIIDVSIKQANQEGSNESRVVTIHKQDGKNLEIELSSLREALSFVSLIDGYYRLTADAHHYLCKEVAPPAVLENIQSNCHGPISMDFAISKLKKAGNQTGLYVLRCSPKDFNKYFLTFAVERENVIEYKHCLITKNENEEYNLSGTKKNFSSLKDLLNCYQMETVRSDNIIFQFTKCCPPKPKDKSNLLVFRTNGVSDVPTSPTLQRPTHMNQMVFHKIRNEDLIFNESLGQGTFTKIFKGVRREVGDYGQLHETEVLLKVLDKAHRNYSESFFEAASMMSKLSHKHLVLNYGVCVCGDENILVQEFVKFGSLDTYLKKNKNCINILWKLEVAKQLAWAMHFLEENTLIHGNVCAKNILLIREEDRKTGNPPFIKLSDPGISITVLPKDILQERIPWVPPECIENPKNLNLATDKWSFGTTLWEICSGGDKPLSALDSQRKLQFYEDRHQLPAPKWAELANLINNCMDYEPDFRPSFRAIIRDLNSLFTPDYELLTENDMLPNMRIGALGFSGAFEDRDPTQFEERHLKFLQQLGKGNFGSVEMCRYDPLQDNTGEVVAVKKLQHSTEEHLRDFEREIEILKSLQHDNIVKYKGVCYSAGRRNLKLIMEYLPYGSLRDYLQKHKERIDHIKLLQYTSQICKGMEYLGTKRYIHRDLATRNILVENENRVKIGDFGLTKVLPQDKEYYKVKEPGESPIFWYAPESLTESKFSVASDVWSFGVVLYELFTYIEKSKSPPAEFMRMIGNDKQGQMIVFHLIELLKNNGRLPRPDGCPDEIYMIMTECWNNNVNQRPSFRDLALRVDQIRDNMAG
Sequence of cRAF[Y340D][Y341D] (P04049 whole entry Y340D/Y341D): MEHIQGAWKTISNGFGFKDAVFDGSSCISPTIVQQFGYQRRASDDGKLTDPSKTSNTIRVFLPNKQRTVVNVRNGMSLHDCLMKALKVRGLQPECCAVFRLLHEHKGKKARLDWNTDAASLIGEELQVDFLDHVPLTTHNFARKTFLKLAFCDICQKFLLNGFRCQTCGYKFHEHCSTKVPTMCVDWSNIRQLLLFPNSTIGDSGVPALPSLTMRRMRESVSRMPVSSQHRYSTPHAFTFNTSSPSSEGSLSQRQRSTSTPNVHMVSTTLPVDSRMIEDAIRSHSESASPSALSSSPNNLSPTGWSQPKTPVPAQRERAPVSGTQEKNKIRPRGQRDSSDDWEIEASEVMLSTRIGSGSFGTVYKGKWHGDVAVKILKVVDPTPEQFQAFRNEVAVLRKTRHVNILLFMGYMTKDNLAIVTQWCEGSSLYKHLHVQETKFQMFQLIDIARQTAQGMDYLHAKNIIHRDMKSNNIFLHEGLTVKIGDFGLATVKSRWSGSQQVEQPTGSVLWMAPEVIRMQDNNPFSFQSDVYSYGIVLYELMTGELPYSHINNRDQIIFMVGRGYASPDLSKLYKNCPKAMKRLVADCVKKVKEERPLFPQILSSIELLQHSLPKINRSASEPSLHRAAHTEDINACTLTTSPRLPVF

`CN1c2ccc(C(=S)N3CCOCC3)cc2-c2c(ssc2=S)C1(C)C` [2a, 4,4,5-Trimethyl-8-(morpholin-4-ylcarbonothioyl)-4,5-dihydro-1H-[1,2]dithiolo[3,4-c]quinoline-1-thione]: the melting point lay in the range of 106 to 107 °C. The inhibition at 10 µM against JAK2 was 81%. Besides, the inhibition at 10 µM against ALK came out at 84%. The molecule further displayed an inhibition at 10 µM against EGFR[L858R][T790] of 82%. On cRAF[Y340D][Y341D], this molecule came in with an inhibition at 10 µM of 93% and an IC50 of 6570 nM. On JAK3, the inhibition at 10 µM was determined as 96% and inhibition was half-maximal at 360 nM (IC50). On NPM1-ALK, this molecule registered an inhibition at 10 µM of 87% and an IC50 of 540 nM.

Consider `CN1c2ccc(C(=S)N3CCN(c4ccccc4)CC3)cc2-c2c(ssc2=S)C1(C)C` [2b, 4,4,5-Trimethyl-8-[(4-phenylpiperazin-1-yl)carbonothioyl]-4,5-dihydro-1H-[1,2]dithiolo[3,4-c]quinoline-1-thione], for which the inhibition at 10 µM against JAK2 is 83%; at ALK it was 86%; at EGFR[L858R][T790] it was 84%; against cRAF[Y340D][Y341D], 92%; at JAK3, 95%; on NPM1-ALK, 90%. For the same molecule, the IC50 at JAK3 was found to be 380 nM; at NPM1-ALK it was 250 nM.

Take `CC1(C)c2ssc(=S)c2-c2cc(C(=S)N3CCOCC3)ccc2N1Cc1ccccc1` [2c, 5-Benzyl-4,4-dimethyl-8-(morpholin-4-ylcarbonothioyl)-4,5-dihydro-1H-[1,2]dithiolo[3,4-c]quinoline-1-thione]: the inhibition at 10 µM on JAK2 was 76%; against ALK, 77%; against EGFR[L858R][T790], 88%; on cRAF[Y340D][Y341D], 93%; against JAK3, 95%; at NPM1-ALK, 75%. The IC50 against cRAF[Y340D][Y341D] came to 780 nM; at JAK3 it was 410 nM.

Turning to `CC1(C)c2ssc(=S)c2-c2cc(C(=S)N3CCCCC3)ccc2N1Cc1ccccc1` [2d, 5-Benzyl-4,4-dimethyl-8-(piperidin-1-ylcarbonothioyl)-4,5-dihydro-1H-[1,2]dithiolo[3,4-c]quinoline-1-thione], the inhibition at 10 µM against JAK2 is 33%; against ALK it was 39%; against EGFR[L858R][T790], 12%; against cRAF[Y340D][Y341D] it was 61%; against JAK3 it was 69%; against NPM1-ALK, 41%.

`CC1(C)Nc2cc3c(cc2-c2c1ssc2=S)OCCO3` [2h, 4,4-dimethyl-4,5,8,9-tetrahydro-1H-[1,4]dioxino[2,3-g][1,2]dithiolo[3,4-c]quinoline-1-thione]: the melting point fell in the range of 238 to 239 °C. The molecule further came in with an inhibition at 10 µM at JAK2 of 10%. Besides, on ALK, 10 µM produced 49% inhibition. At EGFR[L858R][T790], this molecule displayed an inhibition at 10 µM of 27%. In addition, at cRAF[Y340D][Y341D], the inhibition at 10 µM was determined as 44%. Moreover, the inhibition at 10 µM against JAK3 is 36%. On NPM1-ALK, the inhibition at 10 µM was 42%.

The molecule `COc1ccc2c(c1)-c1c(ssc1=S)C(C)(C)N2C(=O)c1cccs1` [2i, 8-Methoxy-4,4-dimethyl-5-(2-thienylcarbonyl)-4,5-dihydro-1H-[1,2]dithiolo[3,4-c]quinoline-1-thione] yielded a melting point of 158 to 159 °C. This molecule also came in with an inhibition at 10 µM at JAK2 of 64%. The inhibition at 10 µM at ALK was determined as 81%. At EGFR[L858R][T790], the inhibition at 10 µM is 24%. The molecule also displayed an inhibition at 10 µM against cRAF[Y340D][Y341D] of 76%. The same molecule registered an inhibition at 10 µM at JAK3 of 89%. This molecule yielded an inhibition at 10 µM against NPM1-ALK of 77%.

The molecule `COc1ccc2c(c1)-c1c(ssc1=S)C(C)(C)N2C(=O)CN1C(=O)CCC1=O` [2j, 1-[2-(8-Methoxy-4,4-dimethyl-1-thioxo-1,4-dihydro-5H-[1,2]dithiolo[3,4-c]quinolin-5-yl)-2-oxoethyl]pyrrolidine-2,5-dione] had a melting point of 201 to 202 °C. Also, at 10 µM the inhibition against JAK2 was 11%. This molecule also came in with an inhibition at 10 µM against ALK of 7%. In addition, testing at 10 µM at EGFR[L858R][T790] gave an inhibition of 9%. This molecule also gave an inhibition at 10 µM against cRAF[Y340D][Y341D] of 5%. At JAK3, this molecule showed an inhibition at 10 µM of 39%. The molecule also returned an inhibition at 10 µM on NPM1-ALK of 56%.
